Measured values taken from patent US20110301079A1, “NEUROMEDIN U RECEPTOR AGONISTS AND USES THEREOF” (Instituto di Ricerche di Biologia Molecolare P. Angeletti …, priority 2007, published 2011).

Experiments:
mouse NMUR1-ATG = target: T1, mouse NMUR1-ATG (Mus musculus, UniProt O55040); assay: FLIPR calcium mobilization assay, mouse NMUR1-ATG cell line; type: cell-based
T1 construct: expressed in transfected cells; host or cells: FLP-In CHO cells and HEK-293 FLP-In cells (pcDNA5)
T1 sequence (O55040 1-428): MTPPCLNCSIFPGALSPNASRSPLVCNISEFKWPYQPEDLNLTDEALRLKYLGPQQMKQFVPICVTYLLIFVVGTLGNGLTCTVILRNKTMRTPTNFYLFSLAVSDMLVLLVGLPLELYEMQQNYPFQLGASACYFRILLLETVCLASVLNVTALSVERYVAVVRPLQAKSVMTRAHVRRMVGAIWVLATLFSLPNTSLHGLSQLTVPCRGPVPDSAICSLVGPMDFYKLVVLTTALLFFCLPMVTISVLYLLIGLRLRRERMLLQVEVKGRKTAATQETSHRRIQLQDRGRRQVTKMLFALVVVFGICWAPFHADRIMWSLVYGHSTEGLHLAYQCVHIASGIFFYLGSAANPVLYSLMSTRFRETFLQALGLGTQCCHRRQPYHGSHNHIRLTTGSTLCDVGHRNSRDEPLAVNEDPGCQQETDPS
Excerpt: (§1) Human, mouse or rat cDNAs encoding NMUR1 or NMUR2 (as described in Howard et al. Nature 406: 70-74 (2000) were subcloned in pcDNA5 (Invitrogen) and transfected into FLP-In CHO cells and HEK-293 FLP-In cells purchased from Invitrogen (Carlsbad, Calif.) using lipofectamine (Invitrogen). The Flp-In system allows integration and expression of a particular gene of interest at a specific genomic location utilizing the Flp recombinase from yeast. The transfected cells were selected by growth in medium containing 200 μg/mL hygromycin (Invitrogen). Populations were frozen at early passage numbers, and these stocks were used for further studies. Stable clones that expressed the mRNAs were identified functionally by FLIPR as well as by RT-PCR. […] Two different rodent NMUR1 cell lines were thus generated: one with the codon as predicted from the genomic databases and another cell line with an engineered methionine (ATG) as the start codon. The dog NMU receptors were also cloned from intestine RNA (NMUR1) and brain (NMUR2) and stable cell lines were generated as used for the human and rodent cell lines. […] To ensure high levels of expression in a heterologous system, a dog NMUR1 cell line was generated that contains an ATG as the start codon. Additionally, stable cell lines expressing the human receptors were generated in HEK-293/aeq 17 cells which stably express the aequorin gene under the CMV promoter. The human NMUR2 cDNA was cloned into pcDNA3.1 and human NMUR1 was subcloned into pIRES-puro (Clontech, Mountain View, Calif.), after transfection cells were selected in media containing G418 and either hygromycin (NMUR2) or puromycin (NMUR1).
(§2) The NMU receptors signal primarily through Gαq/11 proteins; therefore calcium mobilization assays can be utilized for functional activity.
(§3) Stable cell lines expressing human and or rodent NMUR1 or human NMUR2 receptors are plated at a density of 12,000 cells per well overnight on poly-lysine coated 384-well black-walled plates. The following day, the media is removed from the plates and the cells were subsequently loaded with Fluo-3 (Molecular Probes), a calcium sensitive dye, diluted in FLIPR buffer (1× Hank's buffered saline containing 20 mM HEPES, 0.1% BSA, 2.5 mM probenecid (Sigma) and 1.6 mM TR40). All reagents are from Invitrogen unless otherwise noted. Peptide stocks are resuspended in DMSO at a stock concentration of 2 mM and diluted in FLIPR buffer on the day of the experiment to a 4 μM working stock solution.
(§4) After a 90 minute incubation at room-temperature, cell plates are loaded onto a FLIPR (Molecular Devices) to monitor cellular fluorescence (excitation=488 nm; emission=540 nm) before and after compound/peptide addition. Eight to twelve point dose responses are tested on NMUR-expressing cell lines using FLIPR with 1 μM peptide as the highest dose. The response after peptide addition is taken as the maximum fluorescence units minus the fluorescence immediately prior to stimulation for each well. EC50 values are calculated using GraphPad Prism (San Diego, Calif.) software.
(§5) Percent activity refers to the maximum response at 1 μM compared to the human NMU-25 response at the same concentration.

mouse NMUR2 = target: T2, mouse NMUR2 (Mus musculus, UniProt Q8BZ39); assay: FLIPR calcium mobilization assay, mouse NMUR2 cell line; type: cell-based
T2 construct: expressed in transfected cells; host or cells: FLP-In CHO cells and HEK-293 FLP-In cells (pcDNA5)
T2 sequence (Q8BZ39 whole entry): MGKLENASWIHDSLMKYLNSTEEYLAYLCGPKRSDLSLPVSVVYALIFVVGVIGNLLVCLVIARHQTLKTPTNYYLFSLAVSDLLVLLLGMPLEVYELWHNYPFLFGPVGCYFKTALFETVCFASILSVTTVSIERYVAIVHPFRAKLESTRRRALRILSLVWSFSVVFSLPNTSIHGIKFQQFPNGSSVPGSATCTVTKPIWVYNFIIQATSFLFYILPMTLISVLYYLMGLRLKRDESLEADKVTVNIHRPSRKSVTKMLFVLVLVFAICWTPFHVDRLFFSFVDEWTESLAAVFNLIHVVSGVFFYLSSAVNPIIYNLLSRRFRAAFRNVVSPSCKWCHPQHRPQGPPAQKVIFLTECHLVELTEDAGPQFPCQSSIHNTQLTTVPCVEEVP
Excerpt: as §1, §2, §3, §4, §5

dog NMUR2 = target: T3, dog NMUR2 (Canis lupus familiaris, UniProt A0A8I3MN59); assay: FLIPR calcium mobilization assay, dog NMUR2 cell line; type: cell-based
T3 construct: expressed in transfected cells
T3 sequence (A0A8I3MN59 1-378): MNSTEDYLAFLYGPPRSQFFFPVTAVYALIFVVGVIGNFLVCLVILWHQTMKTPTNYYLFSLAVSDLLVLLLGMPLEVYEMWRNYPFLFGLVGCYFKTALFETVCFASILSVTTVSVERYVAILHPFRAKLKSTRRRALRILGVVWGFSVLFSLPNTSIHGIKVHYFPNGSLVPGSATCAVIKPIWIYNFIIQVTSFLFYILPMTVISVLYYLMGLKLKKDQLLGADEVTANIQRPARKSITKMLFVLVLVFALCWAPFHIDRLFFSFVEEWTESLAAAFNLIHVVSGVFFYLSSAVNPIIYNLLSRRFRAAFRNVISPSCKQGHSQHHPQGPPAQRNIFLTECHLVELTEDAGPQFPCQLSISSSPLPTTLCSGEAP
Excerpt: as §1, §2, §3, §4, §5

[1] = system: wild-type, Nmur1 knockout, Nmur2 knockout and Nmur1/Nmur2 double knockout mice; assay: Acute feeding study in wild-type and Nmur knockout mice; type: in vivo
Method: Ad libitum fed male diet-induced obese mice obtained from Taconic Farms were weighed and dosed either i.p. or s.c. with NMS or NMU at about 30 minutes prior to the onset of the dark phase of the light cycle and provided with a pre-weighed aliquot of high fat diet (D12492: 60% kcal from fat: Research Diets, Inc.), which was then weighed two and 18 hours after the onset of the initial dark phase. Mice were weighed at the 18 hour (overnight) time point.
NMUR1 knockout (Nmur1−/−) mice were generated using standard homologous recombination techniques. Nmur1 mice were subsequently transferred to Taconic Farms where they were either maintained on a 75% C57BL/6×25% 129S6/SvEv mixed genetic background or backcrossed 6 generations to C57BL/6. NMUR2 knockout (Nmur2−/−) mice were licensed from Deltagen Inc., San Mateo, Calif. and subsequently transferred to Taconic Farms were they were either maintained on a 75% C57BL/6×25% 129/OlaHsd mixed genetic background or backcrossed for 7 generations to C57BL/6. NMUR1 and NMUR2 double knockout (Nmur1&2−/−) mice were generated by crossing N6 Nmur1−/− mice to N7 Nmur2−/− mice. Mice were individually housed in Tecniplast cages in a conventional SPF facility. Mice were initially maintained on a regular chow diet and then early in their life were switched to a high fat diet (D12492) with ad libitum access to water in a 12-h light/12-h dark cycle.
The anorectic effects of NMS1 were mediated by both the NMUR1 and NMUR2 receptors. […] Effects on food intake (FIG. 9A) and body weight (FIG. 9B) are shown.

[2] = system: male C57BL/6 diet-induced obese mice; assay: Intraperitoneal glucose tolerance test (IPGTT); type: in vivo; details: one and three mpk injected 30 minutes before IPGTT, glucose 2 g/kg i.p., either dosage level
Method: Fourteen male C57BL/6 diet-induced obese mice (˜30 wk age) were used. Five hours before the experiment, food was removed, and clean cages were provided. Saline with or without NMS at one and three mpk were injected 30 minutes before the IPGTT and a blood sample was taken. Then glucose (2 g/kg) was injected intraperitoneally. Blood samples were taken after 15, 30, 60, 90, and 120 minutes and glucose levels were determined with the glucose oxidase method.

## H-ILQRGSGTAAVDFTKKDHTATWGRPFFLFRPRN-NH2 [NMS, reference compound]
Mouse NMUR1-ATG; FLIPR
  EC50: 7 nM
Mouse NMUR1-ATG; maximum response at 1 μM compared to the human NMU-25 response at the same concentration
  % Activity: 102%
Mouse NMUR2; mouse NMUR2, FLIPR
  EC50: 7.8 nM
Mouse NMUR2; mouse NMUR2, maximum response at 1 μM compared to the human NMU-25 response at the same concentration
  % Activity: 111%
Dog NMUR2; dog NMUR2, FLIPR
  EC50: 1 nM
Dog NMUR2; dog NMUR2, maximum response at 1 μM compared to the human NMU-25 response at the same concentration
  % Activity: 104%
[1]; Nmur1 knockout mice, highest dose tested
  food intake: modest but significant effect
[1]; acute peripheral administration, Nmur1 knockout mice
  food intake: not in Nmur1 knockout mice
[1]; acute peripheral administration, Nmur2 knockout mice
  food intake: significantly reduced
[1]; acute peripheral administration, wild-type mice
  food intake: significantly reduced
[2]
  glucose metabolism (IPGTT): enhanced glucose metabolism
